Common to all, as to conditions: incubation time: 72 h
Assay [1] concerns CAL-51. Nature of the assay: normalised viability (% of control), CellTiter-Blue; higher = more viable cells (about 100 = DMSO control). As to the method: (§1)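 DSRT, CellTiter-Blue viability, 72 h incubation. Signal is normalised to DMSO and benzethonium chloride controls. Value is the normalised response at dose 7.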
A general note: Alamar Blue is a resazurin reagent that responds to reducing activity.

Assay [2] relates to DU-4475. The assay is described as above. The method, then: as §1
In assay [3] the test system is CAL-85-1. The assay is described as above. The method, then:
as §1

Assay [4] concerns MDA-MB-453. Described as above. As to the method: as §1
The subject of assay [5] is HDQ-P1. The description is as above. The method, then:
as §1

The subject of assay [6] is CAL-148. The description is as above. The method, then:
as §1

In assay [7] the test system is CAL-51. The description is as above. The method, then: (§2)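 DSRT, CellTiter-Blue viability, 72 h incubation. Signal is normalised to DMSO and benzethonium chloride controls. Value is the normalised response at dose 9.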
The source holds these as a separate data set.

In assay [8] the test system is DU-4475. Described as above. The method, then:
as §2
This is another data set of the same source.

Assay [9] deals with CAL-85-1. The assay is described as above. The method, then:
as §2
The source holds these as a separate data set.

Assay [10] concerns MDA-MB-453. The description is as above. As to the method: as §2
The source holds these as a separate data set.

Assay [11] concerns HDQ-P1. The assay is described as above. As to the method: as §2
The source holds these as a separate data set.

The test system of assay [12] is CAL-148. The assay is described as above. As to the method: as §2
This is another data set of the same source.

For another assay, the system named is Hs578T. Nature of the assay: normalised response (% of control), CellTiter-Glo; higher = more viable cells (100 = DMSO, 0 = benzethonium chloride kill control). In short, it runs like this:
(§3)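 A 20 µl suspension of breast cancer cells was seeded into each well of 384-well plates containing compound at 5 concentrations in 10-fold steps over a compound-specific 10,000-fold range. After 72 h incubation, CellTox Green fluorescence (485/520 nm) was read first, and CellTiter-Glo luminescence was read after 10 min at room temperature. Each plate was normalised against 0.1 % DMSO (100) and a positive kill control (0), and each value is the normalised signal at one concentration.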
On the technique in general: ATP-based viability assays read luminescence as a measure of living cells.

The next assay deals with HCC1599. Described as above. A digest of the protocol: as §3
The subject of assay [13] is CAL-51. Described as above. In short, it runs like this: as §3
The next assay concerns HCC1143. The description is as above. In short, it runs like this: as §3
Another assay has as its system BT-549. Described as above. In short, it runs like this: as §3
The subject of a further assay is SK-BR-3. The description is as above. In short, it runs like this: as §3
Assay [14] concerns DU-4475. Described as above. In short, it runs like this: as §3
Assay [15] deals with CAL-85-1. The assay is described as above. In short, it runs like this: as §3
Assay [16] deals with MDA-MB-453. Described as above. In short, it runs like this: as §3
For another assay, the system named is MDA-MB-231. Described as above. In short, it runs like this:
as §3

Assay [17] relates to HDQ-P1. Described as above. A digest of the protocol:
as §3

The next assay has as its system MDA-MB-436. The description is as above. A digest of the protocol: as §3
The subject of the next assay is MCF-10A. Described as above. A digest of the protocol: as §3
Another assay deals with HCC1937. The description is as above. A digest of the protocol: as §3
A further assay deals with MFM-223. The assay is described as above. In short, it runs like this: as §3
The next assay concerns MDA-MB-468. The assay is described as above. In short, it runs like this:
as §3

For assay [18], the system named is CAL-148. Described as above. In short, it runs like this: as §3
In the next assay the test system is CAL-120. The assay is described as above. A digest of the protocol:
as §3

In the next assay the test system is BT-474. The description is as above. A digest of the protocol: as §3

This is an account of results in the supplement of paper PMC4862054.

SMILES strings stand for the structures.

As for `COC(=O)C[C@](O)(CCCC(C)(C)O)C(=O)O[C@@H]1C(OC)=C[C@]23CCCN2CCc2cc4c(cc2[C@H]13)OCO4` [Omacetaxine mepesuccinate] (1000 nM), the normalised viability is 4.98% with CAL-51 [1]; 9.53% in the assay with DU-4475 [2]; 3.04% in the assay with CAL-85-1 [3]; 15.1% with MDA-MB-453 [4]; 13.1% with HDQ-P1 [5]; 12.4% in the assay on CAL-148 [6].

On to `COC(=O)C[C@](O)(CCCC(C)(C)O)C(=O)O[C@@H]1C(OC)=C[C@]23CCCN2CCc2cc4c(cc2[C@H]13)OCO4` [Omacetaxine mepesuccinate] (10000 nM), for which the normalised viability worked out at 3.97% in the assay on CAL-51 [7]; 1.55% with DU-4475 [8]; 2.22% in the assay on CAL-85-1 [9]; 2.46% in the assay with MDA-MB-453 [10]; 15.2% in the assay with HDQ-P1 [11]; 5.68% in the assay on CAL-148 [12].

As for `COc1cc(Nc2ncc(F)c(Nc3ccc4c(n3)NC(=O)C(C)(C)O4)n2)cc(OC)c1OC` [R406] (1000 nM), the normalised viability in the assay with CAL-51 [1] came to 112%; in the assay on DU-4475 [2], 105%; in the assay with CAL-85-1 [3], 84.7%; in the assay with MDA-MB-453 [4], 96.4%; in the assay with HDQ-P1 [5] it was 103%; in the assay on CAL-148 [6] it was 97.2%.

Take `COc1cc(Nc2ncc(F)c(Nc3ccc4c(n3)NC(=O)C(C)(C)O4)n2)cc(OC)c1OC` [R406] (10000 nM): the normalised viability with CAL-51 [7] is 97.8%; in the assay with DU-4475 [8], 102%; in the assay with CAL-85-1 [9] it was 94.6%; with MDA-MB-453 [10], 110%; with HDQ-P1 [11], 108%; in the assay on CAL-148 [12] it was 99.8%.

As for `c1ccc(C2CN3CCSC3=N2)cc1` (stereo unspecified) [Tetramisole] (1000 nM), the normalised viability in the assay with CAL-51 [1] was 90.2%; with DU-4475 [2] it was 74%; in the assay on CAL-85-1 [3] it was 98.7%; with MDA-MB-453 [4], 108%; with HDQ-P1 [5], 109%; in the assay with CAL-148 [6] it was 131%.

As to `c1ccc(C2CN3CCSC3=N2)cc1` (stereo unspecified) [Tetramisole] (10000 nM), the normalised viability in the assay with CAL-51 [7] came to 89.3%; in the assay with DU-4475 [8], 101%; in the assay with CAL-85-1 [9], 98.1%; in the assay with MDA-MB-453 [10] it was 99.5%; in the assay on HDQ-P1 [11] it was 116%; with CAL-148 [12] it was 117%.

On to `CCCC(CCC)C(=O)O` [Valproic acid] (1000 nM), for which the normalised response in the assay with Hs578T came to 103%; in the assay with HCC1599, 31.2%; with CAL-51 [13], 70.3%; with HCC1143, 103%; with BT-549, 99.8%; with SK-BR-3, 92.3%. The normalised response turned out to be 94.9% in the assay on DU-4475 [14]; 93.9% in the assay with CAL-85-1 [15]; 111% in the assay with MDA-MB-453 [16]; 101% in the assay with MDA-MB-231; 103% in the assay with HDQ-P1 [17]; 95.6% with MDA-MB-436. Also, the normalised response in the assay with MCF-10A came out at 98.7%; in the assay on HCC1937, 99.5%; in the assay with MFM-223, 94.5%; with MDA-MB-468 it was 93.8%; in the assay on CAL-148 [18] it was 96.2%; in the assay with CAL-120 it was 99.9%. This compound also showed a normalised response in the assay with BT-474 of 103%. Further, the normalised viability in the assay on CAL-51 [1] stood at 89.1%; in the assay on DU-4475 [2], 94.8%; with CAL-85-1 [3] it was 90.6%; in the assay on MDA-MB-453 [4], 116%; with HDQ-P1 [5], 112%; in the assay with CAL-148 [6] it was 88.8%.
